Measured values: the CheMixHub ionic liquid set

Assay: xn = mol fraction of the nth substance listed
Conditions: 100 kPa

CCCCCCCC[n+]1ccccc1.[Br-] + CC(C)[C@H](N)C(=O)O + O
Conditions | electrical conductivity [S/m]
288.15 K, x2 = 0.0008935, x1 = 0.007418 | 1.31
288.15 K, x2 = 0.0008938, x1 = 0.007086 | 1.29
288.15 K, x2 = 0.0008942, x1 = 0.006704 | 1.26
288.15 K, x2 = 0.0008945, x1 = 0.006295 | 1.23
288.15 K, x2 = 0.0008949, x1 = 0.005851 | 1.19
288.15 K, x2 = 0.0008954, x1 = 0.005368 | 1.14
288.15 K, x2 = 0.0008958, x1 = 0.004839 | 1.08
288.15 K, x2 = 0.0008964, x1 = 0.004257 | 1.01
288.15 K, x2 = 0.0008969, x1 = 0.003625 | 0.906
288.15 K, x2 = 0.0008976, x1 = 0.002914 | 0.777
288.15 K, x2 = 0.0008982, x1 = 0.002179 | 0.624
288.15 K, x2 = 0.0008986, x1 = 0.001732 | 0.519
288.15 K, x2 = 0.0008991, x1 = 0.001237 | 0.396
288.15 K, x2 = 0.0008995, x1 = 0.0007528 | 0.27
288.15 K, x2 = 0.001786, x1 = 0.006884 | 1.26
288.15 K, x2 = 0.001787, x1 = 0.006555 | 1.23
288.15 K, x2 = 0.001788, x1 = 0.005847 | 1.16
288.15 K, x2 = 0.001788, x1 = 0.006214 | 1.19
288.15 K, x2 = 0.001789, x1 = 0.005457 | 1.12
288.15 K, x2 = 0.00179, x1 = 0.005019 | 1.08
288.15 K, x2 = 0.001791, x1 = 0.004547 | 1.02
288.15 K, x2 = 0.001792, x1 = 0.00402 | 0.951
288.15 K, x2 = 0.001793, x1 = 0.003446 | 0.852
288.15 K, x2 = 0.001794, x1 = 0.002816 | 0.736
288.15 K, x2 = 0.001795, x1 = 0.002155 | 0.601
288.15 K, x2 = 0.001796, x1 = 0.001258 | 0.39
288.15 K, x2 = 0.001796, x1 = 0.001677 | 0.494
288.15 K, x2 = 0.001797, x1 = 0.000791 | 0.274
293.15 K, x2 = 0.0008935, x1 = 0.007404 | 1.5
293.15 K, x2 = 0.0008938, x1 = 0.007072 | 1.47
293.15 K, x2 = 0.0008942, x1 = 0.00669 | 1.43
293.15 K, x2 = 0.0008945, x1 = 0.006282 | 1.39
293.15 K, x2 = 0.0008949, x1 = 0.005839 | 1.34
293.15 K, x2 = 0.0008954, x1 = 0.005359 | 1.29
293.15 K, x2 = 0.0008958, x1 = 0.00483 | 1.23
293.15 K, x2 = 0.0008964, x1 = 0.004248 | 1.15
293.15 K, x2 = 0.0008969, x1 = 0.003618 | 1.03
293.15 K, x2 = 0.0008976, x1 = 0.002909 | 0.878
293.15 K, x2 = 0.0008982, x1 = 0.002176 | 0.703
293.15 K, x2 = 0.0008986, x1 = 0.00173 | 0.585
293.15 K, x2 = 0.0008991, x1 = 0.001235 | 0.446
293.15 K, x2 = 0.0008995, x1 = 0.0007528 | 0.302
293.15 K, x2 = 0.001786, x1 = 0.006871 | 1.44
293.15 K, x2 = 0.001787, x1 = 0.006543 | 1.4
293.15 K, x2 = 0.001788, x1 = 0.005835 | 1.32
293.15 K, x2 = 0.001788, x1 = 0.006203 | 1.36
293.15 K, x2 = 0.001789, x1 = 0.005446 | 1.28
293.15 K, x2 = 0.00179, x1 = 0.00501 | 1.23
293.15 K, x2 = 0.001791, x1 = 0.004538 | 1.16
293.15 K, x2 = 0.001792, x1 = 0.004013 | 1.08
293.15 K, x2 = 0.001793, x1 = 0.003439 | 0.962
293.15 K, x2 = 0.001794, x1 = 0.002811 | 0.835
293.15 K, x2 = 0.001795, x1 = 0.002152 | 0.681
293.15 K, x2 = 0.001796, x1 = 0.001254 | 0.441
293.15 K, x2 = 0.001796, x1 = 0.001673 | 0.556
293.15 K, x2 = 0.001797, x1 = 0.0007892 | 0.308
298.15 K, x2 = 0.0008935, x1 = 0.007393 | 1.7
298.15 K, x2 = 0.0008938, x1 = 0.007063 | 1.66
298.15 K, x2 = 0.0008942, x1 = 0.006681 | 1.62
298.15 K, x2 = 0.0008945, x1 = 0.006273 | 1.57
298.15 K, x2 = 0.0008949, x1 = 0.005831 | 1.52
298.15 K, x2 = 0.0008954, x1 = 0.005351 | 1.46
298.15 K, x2 = 0.0008959, x1 = 0.004824 | 1.38
298.15 K, x2 = 0.0008964, x1 = 0.004243 | 1.28
298.15 K, x2 = 0.0008969, x1 = 0.003614 | 1.15
298.15 K, x2 = 0.0008976, x1 = 0.002905 | 0.986
298.15 K, x2 = 0.0008982, x1 = 0.002174 | 0.784
298.15 K, x2 = 0.0008986, x1 = 0.001726 | 0.653
298.15 K, x2 = 0.0008991, x1 = 0.001234 | 0.498
298.15 K, x2 = 0.0008995, x1 = 0.000751 | 0.336
298.15 K, x2 = 0.001786, x1 = 0.006862 | 1.62
298.15 K, x2 = 0.001787, x1 = 0.006534 | 1.58
298.15 K, x2 = 0.001788, x1 = 0.005828 | 1.49
298.15 K, x2 = 0.001788, x1 = 0.006196 | 1.54
298.15 K, x2 = 0.001789, x1 = 0.005439 | 1.44
298.15 K, x2 = 0.00179, x1 = 0.005003 | 1.38
298.15 K, x2 = 0.001791, x1 = 0.004533 | 1.31
298.15 K, x2 = 0.001792, x1 = 0.004009 | 1.21
298.15 K, x2 = 0.001793, x1 = 0.003435 | 1.08
298.15 K, x2 = 0.001794, x1 = 0.002807 | 0.937
298.15 K, x2 = 0.001795, x1 = 0.002148 | 0.761
298.15 K, x2 = 0.001796, x1 = 0.001254 | 0.492
298.15 K, x2 = 0.001796, x1 = 0.001671 | 0.623
298.15 K, x2 = 0.001797, x1 = 0.0007892 | 0.342
303.15 K, x2 = 0.0008935, x1 = 0.007383 | 1.93
303.15 K, x2 = 0.0008938, x1 = 0.007052 | 1.88
303.15 K, x2 = 0.0008942, x1 = 0.006672 | 1.82
303.15 K, x2 = 0.0008946, x1 = 0.006264 | 1.77
303.15 K, x2 = 0.000895, x1 = 0.005822 | 1.7
303.15 K, x2 = 0.0008954, x1 = 0.005343 | 1.63
303.15 K, x2 = 0.0008959, x1 = 0.004817 | 1.54
303.15 K, x2 = 0.0008964, x1 = 0.004238 | 1.43
303.15 K, x2 = 0.0008969, x1 = 0.003609 | 1.28
303.15 K, x2 = 0.0008976, x1 = 0.002902 | 1.1
303.15 K, x2 = 0.0008982, x1 = 0.00217 | 0.864
303.15 K, x2 = 0.0008986, x1 = 0.001725 | 0.717
303.15 K, x2 = 0.0008991, x1 = 0.001232 | 0.553
303.15 K, x2 = 0.0008995, x1 = 0.000751 | 0.372
303.15 K, x2 = 0.001786, x1 = 0.006852 | 1.81
303.15 K, x2 = 0.001787, x1 = 0.006525 | 1.77
303.15 K, x2 = 0.001788, x1 = 0.00582 | 1.67
303.15 K, x2 = 0.001788, x1 = 0.006185 | 1.72
303.15 K, x2 = 0.001789, x1 = 0.005432 | 1.61
303.15 K, x2 = 0.00179, x1 = 0.004996 | 1.54
303.15 K, x2 = 0.001791, x1 = 0.004527 | 1.46
303.15 K, x2 = 0.001792, x1 = 0.004004 | 1.35
303.15 K, x2 = 0.001793, x1 = 0.003429 | 1.21
303.15 K, x2 = 0.001794, x1 = 0.002804 | 1.04
303.15 K, x2 = 0.001795, x1 = 0.002146 | 0.845
303.15 K, x2 = 0.001796, x1 = 0.00167 | 0.691
303.15 K, x2 = 0.001797, x1 = 0.0007874 | 0.379
303.15 K, x2 = 0.001797, x1 = 0.001252 | 0.546
308.15 K, x2 = 0.0008936, x1 = 0.00737 | 2.19
308.15 K, x2 = 0.0008938, x1 = 0.00704 | 2.13
308.15 K, x2 = 0.0008942, x1 = 0.006659 | 2.06
308.15 K, x2 = 0.0008946, x1 = 0.006254 | 1.99
308.15 K, x2 = 0.000895, x1 = 0.005812 | 1.92
308.15 K, x2 = 0.0008954, x1 = 0.005334 | 1.81
308.15 K, x2 = 0.0008959, x1 = 0.004808 | 1.71
308.15 K, x2 = 0.0008964, x1 = 0.00423 | 1.57
308.15 K, x2 = 0.0008969, x1 = 0.003602 | 1.42
308.15 K, x2 = 0.0008976, x1 = 0.002896 | 1.19
308.15 K, x2 = 0.0008982, x1 = 0.002167 | 0.943
308.15 K, x2 = 0.0008986, x1 = 0.001721 | 0.784
308.15 K, x2 = 0.0008991, x1 = 0.00123 | 0.608
308.15 K, x2 = 0.0008995, x1 = 0.0007492 | 0.414
308.15 K, x2 = 0.001786, x1 = 0.006839 | 2.07
308.15 K, x2 = 0.001787, x1 = 0.006512 | 2.02
308.15 K, x2 = 0.001788, x1 = 0.00581 | 1.87
308.15 K, x2 = 0.001788, x1 = 0.006175 | 1.95
308.15 K, x2 = 0.001789, x1 = 0.005421 | 1.79
308.15 K, x2 = 0.00179, x1 = 0.004987 | 1.71
308.15 K, x2 = 0.001791, x1 = 0.004518 | 1.62
308.15 K, x2 = 0.001792, x1 = 0.003997 | 1.48
308.15 K, x2 = 0.001793, x1 = 0.003424 | 1.34
308.15 K, x2 = 0.001794, x1 = 0.002798 | 1.14
308.15 K, x2 = 0.001795, x1 = 0.002143 | 0.914
308.15 K, x2 = 0.001796, x1 = 0.001666 | 0.743
308.15 K, x2 = 0.001797, x1 = 0.0007874 | 0.427
308.15 K, x2 = 0.001797, x1 = 0.001249 | 0.603
